Measured values from patent publication US9090609B2, “Benzyl-substituted carbamates and use thereof” (BAYER INTELLECTUAL PROPERTY GMBH, priority 2010, dated 2015).

How the values were obtained:
[1] = test system: aorta rings; test: Vasorelaxant action in vitro (phenylephrine-contracted aorta rings); details: Oryctolagus cuniculus; concentration needed to reduce the phenylephrine contraction of rabbit aorta rings by 50%
Method: B-1. Vasorelaxant Action In Vitro
Rabbits are stunned by a blow to the neck and exsanguinated. The aorta is removed, freed from adhering tissue and divided into rings of a width of 1.5 mm. The rings are placed individually under an initial tension in 5 ml organ baths with Krebs-Henseleit solution which is at 37° C., is gassed with carbogen and has the following composition (in each case mM): sodium chloride 119; potassium chloride: 4.8; calcium chloride dihydrate: 1; magnesium sulfate heptahydrate: 1.4; potassium dihydrogenphosphate: 1.2; sodium bicarbonate: 25; glucose: 10. The contractile force is determined with Statham UC2 cells, amplified and digitalized using A/D transducers (DAS 1802 HC, Keithley Instruments Munich), and recorded in parallel on linear recorders. To obtain a contraction, phenylephrine is added to the bath cumulatively in increasing concentration. After several control cycles, the substance to be investigated is added in each further run in increasing dosage in each case, and the height of the contraction achieved is compared with the height of the contraction reached in the last preceding run. This is used to calculate the concentration needed to reduce the magnitude of the control value by 50% (IC50 value). The standard administration volume is 5 μl; the DMSO content in the bath solution corresponds to 0.1%.

[2] = target: T1, recombinant guanylate cyclase reporter cell line (Rattus norvegicus, UniProt P19686+P20595); test: Effect on a recombinant guanylate cyclase reporter cell line; assay type: cell-based
T1 construct: expressed in transfected cells; host or cells: recombinant reporter cell line
T1 sequence (P20595 1-619): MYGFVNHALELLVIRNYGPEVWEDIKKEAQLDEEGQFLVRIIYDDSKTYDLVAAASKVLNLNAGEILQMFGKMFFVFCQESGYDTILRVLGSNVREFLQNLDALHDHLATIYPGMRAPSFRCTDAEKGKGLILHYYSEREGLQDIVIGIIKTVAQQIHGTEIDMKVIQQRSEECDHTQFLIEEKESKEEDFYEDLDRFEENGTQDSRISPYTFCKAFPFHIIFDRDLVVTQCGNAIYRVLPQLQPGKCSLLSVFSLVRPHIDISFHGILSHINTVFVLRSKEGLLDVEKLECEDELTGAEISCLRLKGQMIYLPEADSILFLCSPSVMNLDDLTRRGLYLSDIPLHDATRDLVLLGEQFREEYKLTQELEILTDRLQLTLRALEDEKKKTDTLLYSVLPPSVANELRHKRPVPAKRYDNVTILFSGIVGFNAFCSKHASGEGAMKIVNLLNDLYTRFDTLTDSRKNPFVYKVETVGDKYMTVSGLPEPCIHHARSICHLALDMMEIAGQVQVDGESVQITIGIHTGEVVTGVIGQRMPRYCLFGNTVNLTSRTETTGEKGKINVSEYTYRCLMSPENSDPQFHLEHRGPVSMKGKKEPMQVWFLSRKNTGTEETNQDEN
T1 sequence (P19686 1-690): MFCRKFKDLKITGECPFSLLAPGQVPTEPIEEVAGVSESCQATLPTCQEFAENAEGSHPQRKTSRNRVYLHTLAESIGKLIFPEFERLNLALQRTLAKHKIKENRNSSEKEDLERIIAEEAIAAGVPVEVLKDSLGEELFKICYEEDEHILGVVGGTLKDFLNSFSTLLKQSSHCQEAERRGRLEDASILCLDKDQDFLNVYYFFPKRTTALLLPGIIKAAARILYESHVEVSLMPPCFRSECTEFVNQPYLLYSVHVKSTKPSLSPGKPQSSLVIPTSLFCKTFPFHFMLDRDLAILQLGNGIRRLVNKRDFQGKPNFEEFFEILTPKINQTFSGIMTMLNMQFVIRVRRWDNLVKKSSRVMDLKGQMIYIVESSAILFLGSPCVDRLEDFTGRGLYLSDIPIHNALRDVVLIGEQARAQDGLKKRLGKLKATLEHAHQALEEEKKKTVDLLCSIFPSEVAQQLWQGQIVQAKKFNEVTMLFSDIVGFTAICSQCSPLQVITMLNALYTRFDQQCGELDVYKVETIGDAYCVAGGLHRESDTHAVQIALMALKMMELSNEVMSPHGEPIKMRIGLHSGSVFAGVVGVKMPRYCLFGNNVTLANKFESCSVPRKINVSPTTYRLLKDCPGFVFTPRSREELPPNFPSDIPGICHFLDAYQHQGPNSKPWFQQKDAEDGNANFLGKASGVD
Method: B-2. Effect on a Recombinant Guanylate Cyclase Reporter Cell Line
The cellular activity of the compounds according to the invention is determined using a recombinant guanylate cyclase reporter cell line, as described in F. Wunder et al., Anal. Biochem. 339, 104-112 (2005).

Structure (SMILES)	IC50 [1]	MEC (minimum effective concentration) [2]
COC(=O)N(Cc1ccccc1)c1cnc(-n2nc(Cc3ccccc3F)c3ncccc32)nc1N [Example 2, Methyl {4-amino-2-[3-(2-fluorobenzyl)-1H-pyrazolo[4,3-b]pyridin−1-yl]pyrimidin-5-yl}benzylcarbamate]	0.705 nM	0.3 µM
COC(=O)N(Cc1ccccc1F)c1c(N)nc(-n2nc(Cc3ccccc3F)c3ncccc32)nc1N [Example 3, Methyl {4,6-diamino-2-[3-(2-fluorobenzyl)-1H-pyrazolo[4,3-b]pyridin-1-yl]pyrimidin-5-yl}(2-fluorobenzyl)carbamate]	0.399 nM	0.1 µM
COC(=O)N(Cc1ccc(F)cc1)c1c(N)nc(-n2nc(Cc3ccccc3F)c3ncccc32)nc1N [Example 4, Methyl {4,6-diamino-2-[3-(2-fluorobenzyl)-1H-pyrazolo[4,3-b]pyridin-1-yl]pyrimidin-5-yl}(4-fluorobenzyl)carbamate]	0.359 nM	0.1 µM

The remaining lines, values ahead:

IC50 [1]	MEC (minimum effective concentration) [2]	Structure (SMILES)
0.185 nM	0.1 µM	COC(=O)N(Cc1ccccc1)c1c(N)nc(-n2nc(Cc3ccccc3F)c3ncccc32)nc1N [Example 5, Methyl benzyl{4,6-diamino-2-[3-(2-fluorobenzyl)-1H-pyrazolo[4,3-b]pyridin-1-yl]pyrimidin-5-yl}carbamate]
0.745 nM	0.1 µM	CC(C)OC(=O)N(Cc1ccccc1)c1c(N)nc(-n2nc(Cc3ccccc3F)c3ncc(F)cc32)nc1N [Example 6, Isopropyl benzyl{4,6-diamino-2-[6-fluoro-3-(2-fluorobenzyl)-1H-pyrazolo[4,3-b]pyridin-1-yl]pyrimidin-5-yl}carbamate]
0.154 nM	–	COC(=O)N(Cc1ccccc1)c1c(N)nc(-n2nc(Cc3ccccc3F)c3ncc(F)cc32)nc1N [Example 8, Methyl benzyl{4,6-diamino-2-[6-fluoro-3-(2-fluorobenzyl)-1H-pyrazolo[4,3-b]pyridin-1-yl]pyrimidin-5-yl}carbamate]
